The values that follow come from patent US10377747B2, “2-arylamino pyridine, pyrimidine or triazine derivatives, preparation method and use thereof” (Wuxi Shuangliang Biotechnology Co., Ltd., priority 2015, dated 2019).

For test [1], the system named is H1975 (non-small-cell lung cancer cells. EGFR L858K/T790M). Nature of the test: Tumor cell proliferation and growth inhibition analysis (Cell Titer-Glo, 72 h), H1975. Format: cell-based. As to conditions: Homo sapiens, NCI-H1975; H1975 cells, 72 h exposure, Cell Titer-Glo; read-out: H1975 GI50. From the text: (§1) […] cell proliferation assay is described as follows.
(§2) Tumor cell proliferation and growth inhibition analysis: H1975 (non-small-cell lung cancer cells. EGFR L858K/T790M) and A431 (human epidermal cancer cells, EGFR wild type) cells were commercially available from the ATCC cell bank. […] The growth medium for A431 cells was DMEM (GIBCO, 11995-065), 10% fetal bovine serum. The influence exerted by the compounds on the proliferation activity of tumor cells was detected by Cell Titer-Glo assay. Tumor cells were exposed to the treatment conditions for 72 h, and the cell density used in each experiment for each cell line was adjusted according to the 72 h cell growth curve. 10 concentration gradients and three-fold dilutions (0.5 nM-10 μM) were set for compounds to be tested, and 3 parallel controls were used for each concentration value.
(§3) Trypsin was used for digesting cells in the logrithmic growth phase to prepare cell suspension, which was counted by a Roche counter and appropriately diluted with complete medium to a final cell concentration of 1˜2×10^3 cell/mL. 384-well plates were seeded with cells, and 22.6 μL were seeded for each well. 3 parallels were set. The plates were incubated in an incubator with 5% CO2 at 37° C. overnight. The compounds were dissolved in DMSO to prepare […] mother liquor. […] 2 μL of compound solution was added into 18 μL of culture medium, and fully mixed. Then 2 μL of mixed solution of compound and culture medium was added into 18 μL of culture medium, and fully mixed. 2.4 μL of mixtures were added into a 384-well plates. […] After cultivation for 72 h, 24 μL of Cell Titer-Glo reagent was added. The contents were mixed on an orbital shaker for 2 min to induce cell lysis. The 384-well plates were incubated at room temperature for 10 min to stabilize the […] signal value. Data was read by Infinite® M1000 PRO (TECAN), and calculated with GraphPad Prism version 5.0. GI50 value was obtained by adjustment using a non-linear regression model of dose response curves.

Test [2] has as its system A431 (human epidermal cancer cells, EGFR wild type). Nature of the test: Tumor cell proliferation and growth inhibition analysis (Cell Titer-Glo, 72 h), A431. The test is classed as cell-based. Particulars: A-431, 72 h exposure.
Source text: as §1, §2, §3
A general note: Cellular ATP, detected with luciferase, serves as a proxy for viable cell number.

The GI50 is the concentration giving 50% growth inhibition. On to `C=CC(=O)Nc1cc(Nc2nccc(-c3nn(C)c4ccsc34)n2)c(OC)cc1N(C)CCN(C)C` [Example 24, N-(2-((2-(dimethylamino)ethyl)(methyl)amino)-4-methoxy-5-((4-(1-methyl-1H-thieno[3,2-c]pyrazol-3-yl)pyrimidin-2-yl)amino)phenyl)acrylamide], for which the concentration for 50% growth inhibition (GI50) in test [1] worked out at 10.7 nM; in test [2], 209 nM.
On to `C=CC(=O)Nc1cc(Nc2nccc(-c3nn(C)c4ccsc34)n2)c(OC(F)F)cc1N(C)CCN(C)C` [Example 25], for which the concentration for 50% growth inhibition (GI50) in test [1] came to 6.5 nM; in test [2] it was 85.8 nM.
In the same order, the values of `C=CC(=O)Nc1cc(Nc2nccc(-c3nn(C)c4ccsc34)n2)c(OC(F)F)cc1N1CCN(C)CC1` [Example 26, N-(4-(difluoromethoxy)-5-((4-(1-methyl-1H-thieno[3,2-c]pyrazol-3-yl)pyrimidin-2-yl)amino)-2-(4-methylpiperazin-1-yl)phenyl)acrylamide] are 296 nM and 1130 nM.
As to `C=CC(=O)Nc1cc(Nc2nccc(-c3nn(C)c4ccsc34)n2)c(OC(F)F)cc1N1CC(N(C)C)C1` [Example 27, N-(4-(difluoromethoxy)-2-(3-(dimethylamino)azetidin-1-yl)-5-((4-(1-methyl-1H-thieno[3,2-c]pyrazol-3-yl)pyrimidin-2-yl)amino)phenyl)acrylamide], the GI50 amounted to 1100 nM in test [1] and 2540 nM in test [2].
The matching figures for `C=CC(=O)Nc1cc(Nc2nccc(-c3nn(C)c4ccsc34)n2)c(OC(F)F)cc1N1CCC(N(C)C)CC1` [Example 28]: 261 nM and 5300 nM.
The matching figures for `C=CC(=O)Nc1cc(Nc2nccc(-c3nn(C)c4ccsc34)n2)c(OC(F)F)cc1N1CC2(CCCN2C)C1` [Example 29, N-(4-(difluoromethoxy)-5-((4-(1-methyl-1H-thieno[3,2-c]pyrazol-3-yl)pyrimidin-2-yl)amino)-2-(5-methyl-2,5-diazaspiro[3.4]oct-2-yl)phenyl)acrylamide]: 60.3 nM and more than 1000 nM.
The matching figures for `C=CC(=O)Nc1cc(Nc2nccc(-c3cn(C)c4cc(C)sc34)n2)c(OC)cc1N(C)CCN(C)C` [Example 30]: 21.5 nM and 943 nM.
Consider `C=CC(=O)Nc1cc(Nc2nccc(-c3c(C)n(C)c4sc(C)cc34)n2)c(OC)cc1N(C)CCN(C)C` [Example 31, N-(2-((2-(dimethylamino)ethyl)(methyl)amino)-4-methoxy-5-((4-(2,5,6-trimethyl-thieno[2,3-b]pyrrol-4-yl)pyrimidin-2-yl)amino)phenyl)acrylamide], for which the GI50 is 33.5 nM in test [1] and 625 nM in test [2].
On to `C=CC(=O)Nc1cc(Nc2ncnc(-c3cccc4cc[nH]c34)n2)c(OC)cc1N(C)CCN(C)C` [Example 32, N-(5-((4-(H-indol-7-yl)-1,3,5-triazin-2-yl)amino)-2-((2-(dimethylamino)ethyl)(methyl)amino)-4-methoxyphenyl)acylamide], for which the GI50 was 9.4 nM in test [1] and 147 nM in test [2].
`C=CC(=O)Nc1cc(Nc2ncnc(-c3cccc4cc[nH]c34)n2)c(OC(F)F)cc1N(C)CCN(C)C` [Example 33, N-(5-((4-(1H-indol-7-yl)-1,3,5-triazin-2-yl)amino)-4-(difluoromethoxy)-2-((2-(dimethylamino)ethyl)(methyl)amino)phenyl)acrylamide]: the GI50 turned out to be 9.8 nM in test [1] and 100 nM in test [2].
For `C=CC(=O)Nc1cc(Nc2ncnc(-c3cccc4cc[nH]c34)n2)c(OC)cc1N1CCN(C)CC1` [Example 34, N-(5-((4-(1H-indol-7-yl)-1,3,5-triazin-2-yl)amino)-4-methoxy-2-(4-methylpiperazin-1-yl)phenyl)acrylamide], the GI50 in test [1] is 462 nM; in test [2] it was 2570 nM.
With `C=CC(=O)Nc1cc(Nc2ncnc(-c3cccc4cc[nH]c34)n2)c(OC)cc1N1CC(N(C)C)C1` [Example 35, N—(5-((4-(1H-indol-7-yl)-1,3,5-triazin-2-yl)amino)-2-(3-(dimethylamino)azetidin-1-yl)-4-methoxyphenyl)acylamide], the GI50 in test [1] worked out at 1560 nM; in test [2], 3320 nM.
In the same order, the values of `C=CC(=O)Nc1cc(Nc2ncnc(-c3cccc4cc[nH]c34)n2)c(OC)cc1N1CC2(CCCN2C)C1` [Example 36, N-(5-((4-(1H-indol-7-yl)-1,3,5-triazin-2-yl)amino)-4-methoxy-2-(5-methyl-2,5-diazaspiro[3.4]oct-2-yl)phenyl)acrylamide] are 114 nM and 1120 nM.
As for `C=CC(=O)Nc1cc(Nc2ncnc(-c3cccc4ccn(C)c34)n2)c(OC)cc1N(C)CCN(C)C` [Example 37, N-(2-((2-(dimethylamino)ethyl)(methyl)amino)-4-methoxy-5-((4-(1-methyl-1H-indol-7-yl)-1,3,5-triazin-2-yl)amino)phenyl)acrylamide], the GI50 was determined as 441 nM in test [1] and 1320 nM in test [2].
In the same order, the values of `C=CC(=O)Nc1cc(Nc2ncnc(-c3cn(C)c4ncccc34)n2)c(OC(F)F)cc1N(C)CCN(C)C` [Example 38, N-(4-(difluoromethoxy)-2-((2-(dimethylamino)ethyl)(methyl)amino)-5-((4-(1-methyl-1H-pyrrolo[2,3-b]pyridin-3-yl)-1,3,5-triazin-2-yl)amino)phenyl)acrylamide] are 8.3 nM and 144 nM.
The matching figures for `C=CC(=O)Nc1cc(Nc2ncnc(-n3cnc4ccccc43)n2)c(OC)cc1N(C)CCN(C)C` [Example 39, N-(5-((4-(1H-benzo[d]imidazol-1-yl)-1,3,5-triazin-2-yl)amino)-2-((2-(dimethylamino)ethyl)(methyl)amino)-4-methoxyphenyl)acrylamide]: 21.2 nM and 15.2 nM.
`C=CC(=O)Nc1cc(Nc2cc(-c3cn(C)c4ncccc34)ccn2)c(OC)cc1N(C)CCN(C)C` [Example 40, N-(2-((2-(dimethylamino)ethyl)(methyl)amino)-4-methoxy-5-((4-(1-methyl-1H-pyrrolo[2,3-b]pyridin-3-yl)pyridin-2-yl)amino)phenyl)acrylamide]: the GI50 in test [1] turned out to be 28.9 nM; in test [2] it was 198 nM.
The matching figures for `C=CC(=O)Nc1cc(Nc2cc(-c3nn(C)c4ccsc34)ccn2)c(OC)cc1N(C)CCN(C)C` [Example 41, N-(2-((2-(dimethylamino)ethylmethyl)amino)-4-methoxy-5-((4-(1-methyl-1H-thieno[3,2-c]pyrazol-3-yl)pyridin-2-yl)amino)phenyl)acrylamide]: approximately 36.5 nM and approximately 800 nM.
The matching figures for `C=CC(=O)Nc1cc(Nc2cc(-c3nn(C)c4cccnc34)ccn2)c(OC)cc1N(C)CCN(C)C` [Example 42, N-(2-((2-(dimethylamino)ethyl)(methyl)amino)-4-methoxy-5-((4-(1-methyl-1H-pyrazolo[4,3-b]pyridin-3-yl)pyridin-2-yl)amino)phenyl)acrylamide]: 16.3 nM and 264 nM.
The matching figures for `C=CC(=O)Nc1cc(Nc2cc(-c3cnn4cccnc34)ccn2)c(OC)cc1N(C)CCN(C)C` [Example 43, N-(2-((2-(dimethylamino)ethyl)(methyl)amino)-4-methoxy-5-((4-(pyrazolo[1,5-a]pyrimidin-3-yl)pyridin-2-yl)amino)phenyl)acrylamide]: 19.1 nM and 267 nM.
As to `C=CC(=O)Nc1cc(Nc2cc(-c3cnc4ccccn34)ccn2)c(OC)cc1N(C)CCN(C)C` [Example 44, N-(2-((2-(dimethylamino)ethyl)(methyl)amino)-5-((4-(imidazo[1,2-a]pyridin-3-yl)pyridin-2-yl)amino)-4-methoxyphenyl)acrylamide], the GI50 in test [1] was 104 nM; in test [2] it was 638 nM.
The matching figures for `C=CC(=O)Nc1cc(Nc2cc(-n3nc(C)c4ccccc43)ccn2)c(OC)cc1N(C)CCN(C)C` [Example 45, N-(2-((2-(dimethylamino)ethyl)(methyl)amino)-4-methoxy-5-((4-(3-methyl-1H-indazol-1-yl)pyridin-2-yl)amino)phenyl)acrylamide]: 7.6 nM and 798 nM.
